# Reference: US5783599A, “Methods of treating cancer and viral infections with 5-iodo-6-amino-and 5-iodo-6-nitroso-1 2-benzopyrones” (priority 1996, dated 1998)
# “Also recorded” adds a separate entry of the source.
# Columns and labels:
# ADPRT [1] = biological target: T1, ADPRT (Bos taurus, UniProt P18493); conditions: literature; cited from earlier work
# ADPRT [2] = biological target: T1, ADPRT; assay: Inhibition of ADPRT / binding to ADPRT (I50, Ki); type: biochemical
# Excerpt: Their biological action spectrum is nearly the same as that of 6-ABP, except that their potency is about 10-50 times greater. Such potency is particularly well documented in case of 5-I-6-ABP against malignant cell proliferation in cell cultures. […] This effectivity is 10-20 times higher than 6-ABP.
# The 6-amino group of 5-I-6-ABP is rapidly oxidized intracellularly to 5-I-6-NOBP which, by binding to the Zn^2+ -finger domain of ADPRT, destabilizes the tightly chelated Zn^2+ by the oxidation of the thiol groups in the Zn^2+ finger polypeptide, thus ejecting Zn^2+. In this way, 5-I-6-ABP effectively inactivates the ADPR-forming activity of this protein and converts it to a DNA binding protein that reacts with "internal domains" of certain double stranded DNA (Biochemistry, 28:5670 (1989); Biochem. Biophys. Res. Commun., 167:842 (1990)). These DNA domains include abnormally replicating DNA structures in tumorigenic or proliferative cells and in viral DNAs, probably at the integration sites.
# [3] = tested on: malignant cell proliferation; assay: Malignant cell proliferation / cytostatic activity in cell cultures, overall; type: cell-based
# Excerpt: (§1) In this study, the following cell lines were used. Cell line CG I, a non-tumorigenic hybrid of HeLa cells with normal human fibroblasts, and its is tumorigenic revertant counterpart, CG1 III, as described in Science, 215:252 (1982). These cells were obtained from UC Irvine. […] HEp-2 human epidermoid carcinoma cells were provided by Dr. L. Aurelian (University of Maryland). E-Ras cells were-obtained from University of Cincinnati and represent an endothelial cell line transfected with pSV2neo plasmid as described in Proc. Natl. Acad. Sci., 76:1373 (1979). This cell line contains several copies of the activated human Ha-ras oncogene.
# Cells were seeded to 2 cm^2 wells of Falcon tissue culture plates at a density of 6000±650 cells per well. Inhibitors were added to the seeding suspensions from stock solutions of 100 mM 6-ABP in water or 50 mM 5-1-6-ABP in dimethylsulfoxide (DMSO). […] Growth media were Dulbeccos MEM (lines #1 and 2), and Dulbeccols Modified Eagle's Medium, containing 10% fetal bovine serum and penicillin (100 μg/ml) plus streptomycin (100 μg/ml). After incubation for 72 hours at 37° C. in a 5% CO2 humidified atmosphere, incorporation of [^3 H] deoxyadenosine (ICN, 18 Ci/mmol) into DNA was tested as follows: [^3 H] deoxyadenosine (450,000 dpm in 40 μl) of medium was added per well (each containing 600 μl of medium) and incubation at 37° C. was continued for 1 hour, followed by removal of the medium and rinsing of the wells 3 times with phosphate-buffered saline. Cells were then lysed in 500 μl of 0.06M NaOH and the acid precipitable radioactivity was determined.
# [4] = Metabolic conversion in liver / intracellular oxidation and cell penetration; conditions: nitro oxidation product formed in liver
# GC1 III cells = assay: DNA synthesis ([3H]deoxyadenosine incorporation) in CG1 III cells; type: cell-based; conditions: Homo sapiens, 6-ABP 0.5 mM, 72 h, N=5
# Excerpt: as §1
# (§2) Cells were seeded to 2 cm^2 wells of Falcon tissue culture plates at a density of 6000±650 cells per well. Inhibitors were added to the seeding suspensions from stock solutions of 100 mM 6-ABP in water or 50 mM 5-1-6-ABP in dimethylsulfoxide (DMSO). […] Growth media were Dulbeccos MEM (lines #1 and 2), and Dulbeccols Modified Eagle's Medium, containing 10% fetal bovine serum and penicillin (100 μg/ml) plus streptomycin (100 μg/ml). […] Cells were then lysed in 500 μl of 0.06M NaOH and the acid precipitable radioactivity was determined.
# HEp-2 cells = assay: DNA synthesis ([3H]deoxyadenosine incorporation) in HEp-2 cells; type: cell-based; conditions: Homo sapiens, 6-ABP 0.5 mM, 72 h, N=5, read-out: % Inhibition of DNA synthesis
# Excerpt: as §1, §2
# AA-2 or MT-2 cells = assay: Cell count and viability of AA-2 and MT-2 cells; type: cell-based, human
# Method: The effects of 5-I-6-ABP treatment of AA-2 and MT-2 cells was directly analyzed by cell count and viability tests including cloning efficiency and trypan blue uptake. The AA2 or MT-2 cell culture having initial cell count per well 0.5×10^5 was submitted to treatment with 3 mM of 6-ABP and or with 0.1 mM of 5-I-6-ABP and compared to untreated cell culture. The cells were counted 4 days after the treatment with 5-I-6-ABP and 6-ABP.
# HIV = assay: Inhibition of syncytia formation by HIV in MT-2 cells; type: cell-based
# E-Ras cells = assay: DNA synthesis ([3H]deoxyadenosine incorporation) in E-Ras cells; type: cell-based; conditions: 6-ABP 0.5 mM, 72 h, N=5
# Excerpt: as §1, §2
# CG1 I cells = assay: DNA synthesis ([3H]deoxyadenosine incorporation) in CG1 I cells; type: cell-based; conditions: Homo sapiens, 6-ABP 0.5 mM, 72 h, N=5
# Excerpt: as §1, §2
# Rat-1 cells = assay: DNA synthesis ([3H]deoxyadenosine incorporation) in Rat-1 cells; type: cell-based; conditions: 6-ABP 0.5 mM, 72 h, N=5
# Excerpt: as §1, §2
# human lymphoblasts = assay: Lymphoblast viability; type: cell-based
# Method: The viability of lymphoblasts is measured by incubating the cells exposed to IL-2, HIV and to 6-ABP with H3-thymidine for 6 hours on the sixth day of culture and determining the amount of cpm incorporated per 100,000 cells placed in culture.
# 14C cells = assay: DNA synthesis ([3H]deoxyadenosine incorporation) in 14C cells; type: cell-based; conditions: Rattus norvegicus, 6-ABP 0.5 mM, 72 h, N=5, read-out: % Inhibition of DNA synthesis
# Excerpt: as §1, §2
# [5] = literature; cited from earlier work
# T1 sequence (P18493 whole entry): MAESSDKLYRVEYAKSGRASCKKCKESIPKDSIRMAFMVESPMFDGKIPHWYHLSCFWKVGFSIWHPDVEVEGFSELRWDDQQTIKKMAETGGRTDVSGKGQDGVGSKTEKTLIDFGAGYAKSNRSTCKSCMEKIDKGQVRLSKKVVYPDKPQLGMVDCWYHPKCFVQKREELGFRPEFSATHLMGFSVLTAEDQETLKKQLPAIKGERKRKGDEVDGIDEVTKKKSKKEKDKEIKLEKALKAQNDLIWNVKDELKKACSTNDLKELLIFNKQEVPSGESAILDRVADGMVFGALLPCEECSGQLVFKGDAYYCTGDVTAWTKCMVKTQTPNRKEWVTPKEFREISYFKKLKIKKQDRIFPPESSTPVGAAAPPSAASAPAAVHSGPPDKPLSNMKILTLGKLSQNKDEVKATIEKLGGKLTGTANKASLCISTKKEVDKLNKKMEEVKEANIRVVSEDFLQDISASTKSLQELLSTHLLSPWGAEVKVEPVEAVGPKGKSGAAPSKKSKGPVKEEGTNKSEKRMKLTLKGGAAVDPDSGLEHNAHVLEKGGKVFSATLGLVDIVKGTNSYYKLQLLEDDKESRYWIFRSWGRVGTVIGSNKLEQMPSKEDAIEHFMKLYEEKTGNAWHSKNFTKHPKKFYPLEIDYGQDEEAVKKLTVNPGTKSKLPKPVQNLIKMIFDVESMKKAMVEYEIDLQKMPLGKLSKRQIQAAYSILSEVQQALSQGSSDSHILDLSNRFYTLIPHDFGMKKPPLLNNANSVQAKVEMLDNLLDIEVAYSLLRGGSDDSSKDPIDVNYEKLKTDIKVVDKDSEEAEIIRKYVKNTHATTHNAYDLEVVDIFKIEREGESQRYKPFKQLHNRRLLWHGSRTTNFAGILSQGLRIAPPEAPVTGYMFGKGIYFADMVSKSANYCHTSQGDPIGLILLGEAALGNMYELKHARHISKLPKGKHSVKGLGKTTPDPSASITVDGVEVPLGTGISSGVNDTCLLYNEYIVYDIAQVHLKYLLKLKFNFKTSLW
compound,measurement,setting,value
"O=c1ccc2ccccc2o1 [1,2-benzopyrone (coumarin), 1,2-benzopyrone]",ADPRT ligand,ADPRT [1],inhibitory ligand
"O=Nc1ccc2oc(=O)ccc2c1I [5-I-6-NOBP, 5-iodo-6-nitroso-1,2-benzopyrone]",inhibition of / binding to ADPRT,ADPRT [2],binds with high affinity to zinc-fingers of enzyme ADPRT; also recorded: potent inhibitor of ADPRT
same,potency relative to 6-ABP,"[3]; biological action spectrum, vs 6-ABP",10-50 times
"O=c1ccc2c(I)c([N+](=O)[O-])ccc2o1 [5-I-6-nitro-NBP, 5-iodo-6-nitro-1,2-benzopyrone]",biochemical activity,[4],inactive
"Nc1ccc2oc(=O)ccc2c1 [6-ABP, 6-amino-1,2-benzopyrone, reference compound]",inhibition at 500 µM,GC1 III cells,-37.5%
same,percent change in DNA synthesis vs control at 500 µM,HEp-2 cells,-47.6%
same,cytotoxicity,AA-2 or MT-2 cells,does not involve cytotoxicity
same,effect on cell proliferation,"AA-2 or MT-2 cells; 3 mM 6-ABP, 0.1 mM 5-I-6-ABP, 4 days",inhibitory effect on cell proliferation
same,toxic effects in viability test,"AA-2 or MT-2 cells; 3 mM 6-ABP, 4 days",no evidence of toxic effects
same,inhibition of syncytia formation,HIV,complete
same,IC50,ADPRT [2],125 µM
same,Ki,ADPRT [2],47 µM
same,effectivity of 500 μM 6-ABP compared with 5-I-6-ABP,"[3]; 500 μM 6-ABP vs 50 μM 5-I-6-ABP, vs 500 μM as printed",the same effectivity
same,inhibition at 500 µM,E-Ras cells,-69.5%
same,inhibition at 500 µM,CG1 I cells,-19.8%
same,ADPRT ligand,ADPRT [1],specifically bind to ADPRT
same,inhibition at 500 µM,Rat-1 cells,-30.5%
same,cell damage or death,human lymphoblasts,without detectable cell damage or death
same,percent change in DNA synthesis versus control at 500 µM,14C cells,-53.3%
same,"sedative, hypnotic, hypothermal, antipyretic, hypotensive, adrenolytic action",[5],No significant action
